# According to publication PMC5063900, “A phase 1 study of the safety, tolerability, pharmacokinetics, and pharmacodynamics of TAK-063, a selective PDE10A inhibitor” (Psychopharmacology, 2016):
# Marks after values point to notes of the source that are not given here.
# Experiment: Plasma and urine pharmacokinetics after single oral dose under fasting conditions
# Assay type: in vivo, human
# Conditions: for AUC(0-inf) / C max / CL/F (oral clearance) / T 1/2 / Vz/F (volume of distribution) / T max / CL/F / Vz/F: plasma
# Method: Healthy Japanese and non-Japanese subjects between 18 and 55 years of age were recruited to participate in the study. Criteria for exclusion included prior treatment with any investigational compound within 30 days of the first TAK-063 dose, a positive test for drugs of abuse or nicotine, and an increased risk for suicide. Subjects were randomized into 1 of 6 dose cohorts (3, 10, 30, 100, 300, and 1000 mg), with each cohort containing 11 TAK-063 subjects (five Japanese, six non-Japanese) and three placebo subjects (one Japanese, two non-Japanese) receiving a single dose under fasting conditions. Following a washout period of 7 days, subjects in cohort 3 (100 mg) received the same dose (100 mg) but under fed conditions. Serial plasma and urine samples were collected from all subjects prior to dosing and at specific time points or intervals up to 96 h postdose. Pharmacokinetic samples were processed immediately and frozen at −20 °C as duplicate sets. Plasma concentrations of TAK-063 and its metabolite M-I were subsequently measured by validated liquid chromatography-tandem mass spectrometry with a validated range of 0.5 to 1000 ng/mL for both analytes. The PK parameters analyzed for TAK-063 and its metabolite M-I in plasma and urine included area under the plasma concentration-time curve from time 0 to infinity (AUC (0-inf)), maximum observed plasma concentration (C max), time to reach C max (T max), terminal elimination half-life (T 1/2), oral clearance (CL/F), volume of distribution (Vz/F), and renal clearance (CLr). Metabolite-to-parent ratios were estimated from C max and AUC (0-inf) data. All statistical analyses were generated using SAS Version 9.2 (SAS, Cary, NC, USA). The PK parameters were derived using non-compartmental methods with WinNonlin Enterprise Version 6.3 (Pharsight Corp., Mountain View, CA, USA). Frequency or descriptive statistics were used for summary of data. Where indicated, percent coefficient of variation was included in the summary of continuous data. All statistical tests were 2-tailed at α = 0.05 level for significance unless otherwise stated. A power model was used to evaluate dose proportionality by race for fasted subjects; in the event of no observed race effect, dose proportionality was assessed for all subjects. To evaluate the food effect, a paired t test was performed on T max and natural log-transformed C max, and AUCs. An ANCOVA model with baseline scores and race as covariates was used to assess the effects of TAK-063 on CNSVS domain scores.
# [1] = Japanese subjects, TAK-063 3 mg (n = 5), arithmetic mean
# [2] = Japanese subjects, TAK-063 10 mg (n = 5), arithmetic mean
# [3] = Japanese subjects, TAK-063 30 mg (n = 5), arithmetic mean
# [4] = Japanese subjects, TAK-063 100 mg (n = 4), arithmetic mean
# [5] = Japanese subjects, TAK-063 100 mg (n = 5; TAK-063 n = 4), arithmetic mean
# [6] = Japanese subjects, TAK-063 300 mg (n = 4), arithmetic mean
# [7] = Japanese subjects, TAK-063 300 mg (n = 5; TAK-063 n = 4), arithmetic mean
# [8] = Japanese subjects, TAK-063 1000 mg (n = 5), arithmetic mean
# [9] = fasting, all subjects, TAK-063 3 mg (n = 11), arithmetic mean (% CV)
# [10] = fasting, all subjects, TAK-063 3 mg (n = 11; M-I n = 10), arithmetic mean (% CV)
# [11] = fasting, all subjects, TAK-063 10 mg (n = 11), arithmetic mean (% CV)
# [12] = fasting, all subjects, TAK-063 30 mg (n = 11), arithmetic mean (% CV)
# [13] = fasting, all subjects, TAK-063 100 mg (n = 9), arithmetic mean (% CV)
# [14] = fasting, all subjects, TAK-063 100 mg (n = 11; TAK-063 n = 9), arithmetic mean (% CV)
# [15] = fasting, all subjects, TAK-063 300 mg (n = 8), arithmetic mean (% CV)
# [16] = fasting, all subjects, TAK-063 300 mg (n = 11; TAK-063 n = 8), arithmetic mean (% CV)
# [17] = fasting, all subjects, TAK-063 1000 mg (n = 11), arithmetic mean (% CV)
# [18] = non-Japanese subjects, TAK-063 3 mg (n = 6), arithmetic mean
# [19] = non-Japanese subjects, TAK-063 3 mg (n = 6; M-I n = 5), arithmetic mean
# [20] = non-Japanese subjects, TAK-063 10 mg (n = 6), arithmetic mean
# [21] = non-Japanese subjects, TAK-063 30 mg (n = 6), arithmetic mean
# [22] = non-Japanese subjects, TAK-063 100 mg (n = 5), arithmetic mean
# [23] = non-Japanese subjects, TAK-063 100 mg (n = 6; TAK-063 n = 5), arithmetic mean
# [24] = non-Japanese subjects, TAK-063 300 mg (n = 4), arithmetic mean
# [25] = non-Japanese subjects, TAK-063 300 mg (n = 6; TAK-063 n = 4), arithmetic mean
# [26] = non-Japanese subjects, TAK-063 1000 mg (n = 6), arithmetic mean
smiles,measurement,setting,value
COc1cn(-c2ccc(-n3cccn3)cc2F)nc(-c2ccnn2-c2ccccc2)c1=O [TAK-063],Increase in AUC over the dose range,"333-fold increase in dose (3 to 1000 mg), fasting",up to 26 fold
same,AUC(0-inf),[1],250.3 ng·h/mL
same,C max,[1],16.1 ng/mL
same,CL/F (oral clearance),[1],12.5 L/h
same,T 1/2,[1],15.9 h
same,Vz/F (volume of distribution),[1],269.5 L
same,T max,"Japanese subjects, TAK-063 3 mg (n = 5), median",4.0 h
same,AUC(0-inf),[2],659.2 ng·h/mL
same,C max,[2],30.2 ng/mL
same,CL/F (oral clearance),[2],15.8 L/h
same,T 1/2,[2],18.2 h
same,Vz/F (volume of distribution),[2],412.2 L
same,T max,"Japanese subjects, TAK-063 10 mg (n = 5), median",4.0 h
same,AUC(0-inf),[3],1027.3 ng·h/mL
same,C max,[3],55.7 ng/mL
same,CL/F (oral clearance),[3],35.2 L/h
same,T 1/2,[3],17.8 h
same,Vz/F (volume of distribution),[3],889.4 L
same,T max,"Japanese subjects, TAK-063 30 mg (n = 5), median",4.0 h
same,AUC(0-inf),[4],1459.1 ng·h/mL
same,T 1/2,[4],20.7 h
same,C max,"Japanese subjects, TAK-063 100 mg (n = 5), arithmetic mean",89.9 ng/mL
same,T max,"Japanese subjects, TAK-063 100 mg (n = 5), median",3.0 h
same,CL/F (oral clearance),[5],75.8 L/h
same,Vz/F (volume of distribution),[5],2288.5 L
same,AUC(0-inf),[6],1636.0 ng·h/mL
same,T 1/2,[6],20.3 h
same,C max,"Japanese subjects, TAK-063 300 mg (n = 5), arithmetic mean",98.2 ng/mL
same,T max,"Japanese subjects, TAK-063 300 mg (n = 5), median",4.0 h
same,CL/F (oral clearance),[7],212.8 L/h
same,Vz/F (volume of distribution),[7],6409.8 L
same,AUC(0-inf),[8],4931.4 ng·h/mL
same,C max,[8],264.0 ng/mL
same,CL/F (oral clearance),[8],233.8 L/h
same,T 1/2,[8],11.7 h
same,Vz/F (volume of distribution),[8],3953.4 L
same,T max,"Japanese subjects, TAK-063 1000 mg (n = 5), median",4.0 h
same,C max,[9],11.8 (51) ng/mL
same,CL/F (oral clearance),[9],14.0 (48) L/h
same,Vz/F (volume of distribution),[9],407.0 (64) L
same,T max,"fasting, all subjects, TAK-063 3 mg (n = 11), median (minimum, maximum)","4.0 (2.0, 24.0) h"
same,AUC(0-inf),[10],244.9 (32) ng·h/mL
same,T 1/2,[10],20.4 (48) h
same,AUC(0-inf),[11],576.7 (29) ng·h/mL
same,C max,[11],26.7 (34) ng/mL
same,CL/F (oral clearance),[11],18.7 (30) L/h
same,T 1/2,[11],19.9 (18) h
same,Vz/F (volume of distribution),[11],529.5 (29) L
same,T max,"fasting, all subjects, TAK-063 10 mg (n = 11), median (minimum, maximum)","4.0 (2.0, 16.0) h"
same,AUC(0-inf),[12],1003.6 (42) ng·h/mL
same,C max,[12],46.9 (61) ng/mL
same,CL/F (oral clearance),[12],33.1 (27) L/h
same,T 1/2,[12],20.4 (30) h
same,Vz/F (volume of distribution),[12],954.8 (33) L
same,T max,"fasting, all subjects, TAK-063 30 mg (n = 11), median (minimum, maximum)","4.0 (3.0, 16.0) h"
same,AUC(0-inf),[13],1406.8 (38)^c ng·h/mL
same,T 1/2,[13],24.6 (37)^c h
same,C max,"fasting, all subjects, TAK-063 100 mg (n = 11), arithmetic mean (% CV)",80.5 (48) ng/mL
same,T max,"fasting, all subjects, TAK-063 100 mg (n = 11), median (minimum, maximum)","3.0 (1.5, 6.0) h"
same,CL/F (oral clearance),[14],80.3 (35)^c L/h
same,Vz/F (volume of distribution),[14],2802.2 (46)^c L
same,AUC(0-inf),[15],1900.8 (39)^d ng·h/mL
same,T 1/2,[15],20.2 (26)^d h
same,C max,"fasting, all subjects, TAK-063 300 mg (n = 11), arithmetic mean (% CV)",100.3 (18) ng/mL
same,T max,"fasting, all subjects, TAK-063 300 mg (n = 11), median (minimum, maximum)","4.0 (1.9, 8.0) h"
same,CL/F (oral clearance),[16],185.9 (48)^d L/h
same,Vz/F (volume of distribution),[16],5570.7 (57)^d L
same,AUC(0-inf),[17],5788.1 (81) ng·h/mL
same,C max,[17],245.8 (34) ng/mL
same,CL/F (oral clearance),[17],232.0 (42) L/h
same,T 1/2,[17],14.6 (43) h
same,Vz/F (volume of distribution),[17],5277.2 (81) L
same,T max,"fasting, all subjects, TAK-063 1000 mg (n = 11), median (minimum, maximum)","4.0 (2.0, 12.0) h"
same,C max,[18],8.2 ng/mL
same,CL/F,[18],15.2 L/h
same,Vz/F,[18],521.6 L
same,T max,"non-Japanese subjects, TAK-063 3 mg (n = 6), median",5.0 h
same,AUC(0-inf),[19],240.4 ng·h/mL
same,T 1/2,[19],24.2 h
same,AUC(0-inf),[20],507.9 ng·h/mL
same,C max,[20],23.8 ng/mL
same,CL/F,[20],21.2 L/h
same,T 1/2,[20],21.3 h
same,Vz/F,[20],627.3 L
same,T max,"non-Japanese subjects, TAK-063 10 mg (n = 6), median",5.0 h
same,AUC(0-inf),[21],983.9 ng·h/mL
same,C max,[21],39.5 ng/mL
same,CL/F,[21],31.4 L/h
same,T 1/2,[21],22.6 h
same,Vz/F,[21],1009.2 L
same,T max,"non-Japanese subjects, TAK-063 30 mg (n = 6), median",5.0 h
same,AUC(0-inf),[22],1364.9 ng·h/mL
same,T 1/2,[22],27.8 h
same,C max,"non-Japanese subjects, TAK-063 100 mg (n = 6), arithmetic mean",72.7 ng/mL
same,T max,"non-Japanese subjects, TAK-063 100 mg (n = 6), median",3.5 h
same,CL/F,[23],84.0 L/h
same,Vz/F,[23],3213.2 L
same,AUC(0-inf),[24],2165.7 ng·h/mL
same,T 1/2,[24],20.0 h
same,C max,"non-Japanese subjects, TAK-063 300 mg (n = 6), arithmetic mean",102.1 ng/mL
same,T max,"non-Japanese subjects, TAK-063 300 mg (n = 6), median",3.5 h
same,CL/F,[25],159.0 L/h
same,Vz/F,[25],4731.5 L
same,AUC(0-inf),[26],6502.0 ng·h/mL
same,C max,[26],230.7 ng/mL
same,CL/F,[26],230.6 L/h
same,T 1/2,[26],17.0 h
same,Vz/F,[26],6380.3 L
same,T max,"non-Japanese subjects, TAK-063 1000 mg (n = 6), median",4.0 h
same,CLr (renal clearance),"urine, Japanese subjects, TAK-063 30 mg (n = 5), arithmetic mean",4.0 mL/h
same,CLr (renal clearance),"urine, Japanese subjects, TAK-063 100 mg (n = 5), arithmetic mean",7.9 mL/h
same,CLr (renal clearance),"urine, Japanese subjects, TAK-063 300 mg (n = 5), arithmetic mean",5.9 mL/h
same,CLr (renal clearance),"urine, Japanese subjects, TAK-063 1000 mg (n = 5), arithmetic mean",6.8 mL/h
same,Renal elimination,"urine, fasting",negligible
same,CLr (renal clearance),"urine, fasting, all subjects, TAK-063 30 mg (n = 11), arithmetic mean (% CV)",2.4 (123) mL/h
same,CLr (renal clearance),"urine, fasting, all subjects, TAK-063 100 mg (n = 11), arithmetic mean (% CV)",5.9 (78) mL/h
same,CLr (renal clearance),"urine, fasting, all subjects, TAK-063 300 mg (n = 11), arithmetic mean (% CV)",6.1 (63) mL/h
same,CLr (renal clearance),"urine, fasting, all subjects, TAK-063 1000 mg (n = 11), arithmetic mean (% CV)",6.8 (56) mL/h
same,CLr,"urine, non-Japanese subjects, TAK-063 30 mg (n = 6), arithmetic mean (% CV)",1.1 (179) mL/h
same,CLr,"urine, non-Japanese subjects, TAK-063 100 mg (n = 6), arithmetic mean (% CV)",4.2 (84) mL/h
same,CLr,"urine, non-Japanese subjects, TAK-063 300 mg (n = 6), arithmetic mean (% CV)",6.2 (63) mL/h
same,CLr,"urine, non-Japanese subjects, TAK-063 1000 mg (n = 6), arithmetic mean (% CV)",6.8 (61) mL/h
